The source of these data is publication PMC12472494, “Anticonvulsant Potential of 1-Aryl-6,7-dimethoxy-1,2,3,4-tetrahydroisoquinolines: Insights from Strychnine and Nicotine Models in In Vivo and In Silico Studies” (Pharmaceuticals, 2025).

Series [1] relates to strychnine-induced seizures. Kind of series: Strychnine-induced seizure model. It is filed as in vivo, mice. Conditions: oral dose 1.0 mg/kg 60 min before strychnine 1.5 mg/kg s.c., N = 10; for responders at 1 mg/kg: Mus musculus, read-out: Survival Rate; for Duration of Tremor and Seizures / Latency to Tremor and Seizure Onset: mean ± SD.
Series [2] relates to tremorogenic and convulsive actions of nicotine. Kind of series: Nicotine-induced tremor and seizure model. It is filed as in vivo, mice. Conditions: for responders at 1 mg/kg: Mus musculus, po, read-out: Survival Rate; for survival rate of the animals increased to: at low doses (0.1–5 mg/kg); for activity against tremorogenic and convulsive actions of nicotine versus reference drugs (in words): doses of 0.1–5 mg/kg; for Duration of Seizures / Latency to Seizure Onset: oral dose 1.0 mg/kg 60 min before nicotine 10 mg/kg s.c., mean ± SD, N = 10.

On the set-up of series [3]: method as in PMID 36677539. The note with it: per os; cited from earlier work.

On to `COc1cc2c(cc1OC)C(c1cc3c(cc1Cl)OCO3)NCC2` (centres unmarked) [Compound 31, 1-(4′,5′-Methylenedioxy-2′-chlorophenyl)-6,7-dimethoxy-1,2,3,4-tetrahydroisoquinoline], for which, in series [1], the responders at 1 mg/kg stood at 30%; the “Duration of Tremor and Seizures” value is on record as 0.59 ± 0.5 min; the “Latency to Tremor and Seizure Onset” value came to 13.6 ± 1.9 min. Also, in series [2], the responders at 1 mg/kg came out at 90%; the “survival rate of the animals increased to” value is 90–100%; the “activity against tremorogenic and convulsive actions of nicotine versus reference drugs (in words)” value is “comparable activity to the reference drugs”; the “Duration of Seizures” value was found to be 10.7 ± 0.9 min. Besides, the “Latency to Seizure Onset” value in series [2] is reported as 2.3 ± 0.08 min. For the same molecule, the LD50 in series [3] is 520.8 (491.9 ± 545.4) mg/kg.

Consider `COc1cc2c(cc1OC)C(c1ccccc1N)NCC2` (centres unmarked) [Compound 32, 1-(2′-Aminophenyl)-6,7-dimethoxy-1,2,3,4-tetrahydroisoquinoline], for which, in series [1], the responders at 1 mg/kg was 50%; the “Duration of Tremor and Seizures” value is 0.34 ± 0.4 min; the “Latency to Tremor and Seizure Onset” value stood at 18.2 ± 1.7 min. Besides, in series [2], the responders at 1 mg/kg was 60%, the “Duration of Seizures” value turned out to be 12.2 ± 0.8 min and the “Latency to Seizure Onset” value stood at 1.8 ± 0.06 min. In series [3], the LD50 is listed as 366.3 (326.3 ± 395.6) mg/kg.

For `COc1cc2c(cc1OC)C(c1cccc(N)c1)NCC2` (centres unmarked) [Compound 33, 1-(3′-Aminophenyl)-6,7-dimethoxy-1,2,3,4-tetrahydroisoquinoline], in series [1], the responders at 1 mg/kg was determined as 50%; the “Duration of Tremor and Seizures” value stood at 0.42 ± 0.8 min; the “Latency to Tremor and Seizure Onset” value stood at 16.7 ± 1.0 min. In series [2], the responders at 1 mg/kg amounted to 80%, the “Duration of Seizures” value was 17.0 ± 0.6 min and the “Latency to Seizure Onset” value turned out to be 2.2 ± 0.04 min. Moreover, the LD50 in series [3] was 732.0 (598.2 ± 885.4) mg/kg.

On to `COc1cc2c(cc1OC)C(c1ccc(N)cc1)NCC2` (centres unmarked) [Compound 34, 1-(4′-Aminophenyl)-6,7-dimethoxy-1,2,3,4-tetrahydroisoquinoline], for which, in series [1], the responders at 1 mg/kg is 40%; the “Duration of Tremor and Seizures” value was 0.34 ± 0.7 min; the “Latency to Tremor and Seizure Onset” value was 15.5 ± 1.8 min. Also, in series [2], the responders at 1 mg/kg came to 90%; the “survival rate of the animals increased to” value was 90–100%; the “activity against tremorogenic and convulsive actions of nicotine versus reference drugs (in words)” value is on record as “comparable activity to the reference drugs”; the “Duration of Seizures” value amounted to 10.2 ± 0.7 min. In series [2], the “Latency to Seizure Onset” value is 2.2 ± 0.04 min. For the same molecule, in series [3], the LD50 is 1043.2 (993.3 ± 1082.6) mg/kg.
